Test results taken from patent publication EP0295827A2, “Use of 24,25-dihydroxy-cholecalciferol in mending bone fractures” (priority 1987, dated 1988).

Tests used:
ICR mice [1] = experiment: 30-day repeated oral administration: urine analysis; assay type: in vivo; parameters: key: ↓: Decreased; →: No change; ↑: Increased; settings: 30 days, vs control group
Protocol: (§1) 24R,25-(OH)₂-D₃ was dissolved in 1% ethanol containing Panacate 810 to a predetermined concentration and the resultant solution was forcibly and orally administered to 5-week-old male or female ICR mice for 30 days in succession so that the does might become to 10 µg/kg/day, 100 µg/kg/day and 1,000 µg/kg/day, respectively. The thus treated mice were compared with a group of mice to which only the solvent had been administered in the following test items.

ICR mice [2] = experiment: 30-day repeated oral administration: biochemical serum test; assay type: in vivo; parameters: key: ↓: Decreased; →: No change; ↑: Increased; settings: 30 days, vs control group
Protocol: as §1

ICR mice [3] = experiment: 30-day repeated oral administration: pathological inspection of organs; assay type: in vivo; settings: 10, 100 and 1,000 µg/kg/day oral, 30 days; 10% formalin, hematoxylin-eosin
Protocol: as §1
The following organs were fixed by 10% formalin, stained with hematoxylin-eosin and subjected to pathological inspection.

[4] = tested on: rabbits suffering fracture; experiment: Fibula fracture model: strength test (bending test); assay type: in vivo, Japanese white house rabbits; settings: 100 µg/kg oral, average value ± standard deviation
From the text: (§2) The right fibulae of mature house rabbits (Japanese white house rabbits having a weight of about 3 kg) were broken at the central portions under anesthetic with a dental hand drill. Each of the house rabbits was kept in a separate cage and was allowed to take an ordinary solid food (CR-1, produced by Nippon Clare Corp.) and city water freely. 24R,25-(OH)₂-D₃ and 24S,25-(OH)₂-D₃ were dispersed in an aqueous 0.5% CMC solution and orally administered to the house rabbits through a rubber catheter. The experimental groups were as follows:
(§3) The respective medicines or aqueous 0.5% CMC solution was administered to these house rabbits for 3 weeks or 6 weeks after the bones had been broken. Thereafter, the house rabbits were killed and the fibulae were taken out for X-ray inspection and a strength test (bending test by DDV-VMF produced by Toyo Baldwin Co., Ltd.).

ICR mice [5] = experiment: 30-day repeated oral administration: general blood test; assay type: in vivo; parameters: key: ↓: Decreased; →: No change; ↑: Increased; settings: 30 days, vs control group
Protocol: as §1

[6] = tested on: rabbits suffering fracture; experiment: Fibula fracture model: X-ray inspection; assay type: in vivo, Japanese white house rabbits; settings: 100 µg/kg oral, 3 weeks after the bones had been broken
From the text: as §2, §3

ICR mice [7] = experiment: 30-day repeated oral administration: weight of organs; assay type: in vivo; parameters: key: ↓: Decreased; →: No change; ↑: Increased; settings: 30 days, vs control group
Protocol: as §1

[8] = 30-day repeated oral administration: growth curve of measured weights; assay type: in vivo, ICR mice; settings: 10, 100 and 1,000 µg/kg/day oral, 30 days, male or female, vs solvent group
Protocol: as §1

## C=C1CC[C@H](O)C/C1=C/C=C1\CCC[C@]2(C)[C@@H]([C@H](C)CC[C@@H](O)C(C)(C)O)CC[C@@H]12 [24R,25-(OH)₂-D₃]
ICR mice [1]; female, 10 μg/kg oral
  Ketone body: →
  Occult blood: →
  Protein: →
  Sugar: →
  Urobilinogen: →
  pH: →
ICR mice [1]; female, 100 μg/kg oral
  Ketone body: →
  Occult blood: →
  Protein: →
  Sugar: →
  Urobilinogen: →
  pH: →
ICR mice [1]; female, 1000 μg/kg oral
  Ketone body: →
  Occult blood: →
  Protein: →
  Sugar: →
  Urobilinogen: →
  pH: →
ICR mice [1]; male, 10 μg/kg oral
  Ketone body: →
  Occult blood: →
  Protein: →
  Sugar: →
  Urobilinogen: →
  pH: →
ICR mice [1]; male, 100 μg/kg oral
  Ketone body: →
  Occult blood: →
  Protein: →
  Sugar: →
  Urobilinogen: →
  pH: →
ICR mice [1]; male, 1000 μg/kg oral
  Ketone body: →
  Occult blood: →
  Protein: →
  Sugar: →
  Urobilinogen: →
  pH: →
ICR mice [2]; female, 10 µg/kg·day oral
  A/G: →
  ALP: →
  Aℓb: →
  BUN: →
  Ca: →
  GOT: →
  GPT: →
  Gℓu: →
  I-P: →
  LDH: →
  T-Biℓ: →
  T-CHO: →
  T-P: →
ICR mice [2]; female, 100 µg/kg·day oral
  A/G: →
  ALP: →
  Aℓb: →
  BUN: →
  Ca: →
  GOT: →
  GPT: →
  Gℓu: →
  I-P: →
  LDH: →
  T-Biℓ: →
  T-CHO: →
  T-P: →
ICR mice [2]; female, 1000 µg/kg·day oral
  A/G: →
  ALP: →
  Aℓb: →
  BUN: →
  Ca: →
  GOT: →
  GPT: →
  Gℓu: →
  I-P: →
  LDH: →
  T-Biℓ: →
  T-CHO: →
  T-P: →
ICR mice [2]; male, 10 µg/kg·day oral
  A/G: →
  ALP: →
  Aℓb: →
  BUN: →
  Ca: →
  GOT: →
  GPT: →
  Gℓu: →
  I-P: →
  LDH: →
  T-Biℓ: →
  T-CHO: →
  T-P: →
ICR mice [2]; male, 100 µg/kg·day oral
  A/G: →
  ALP: →
  Aℓb: →
  BUN: →
  Ca: →
  GOT: →
  GPT: →
  Gℓu: →
  I-P: →
  LDH: →
  T-Biℓ: →
  T-CHO: →
  T-P: →
ICR mice [2]; male, 1000 µg/kg·day oral
  A/G: →
  ALP: →
  Aℓb: →
  BUN: ↓
  Ca: →
  GOT: →
  GPT: →
  Gℓu: ↓
  I-P: →
  LDH: ↓
  T-Biℓ: ↓
  T-CHO: →
  T-P: →
ICR mice [3]
  pathological inspection of organs: No particular abnormality was observed
[4]; 3 weeks after
  Bending strength: 63 ± 33 N/mm
[4]; 6 weeks after
  Bending strength: 103 ± 15 N/mm
ICR mice [5]; female, 10 μg/kg·day oral
  Amount of hemoglobin: →
  Homatocrit: →
  Number of erythrocyte: →
  Number of leucocyte: →
ICR mice [5]; female, 100 μg/kg·day oral
  Amount of hemoglobin: →
  Homatocrit: →
  Number of erythrocyte: →
  Number of leucocyte: →
ICR mice [5]; female, 1000 μg/kg·day oral
  Amount of hemoglobin: →
  Homatocrit: →
  Number of erythrocyte: →
  Number of leucocyte: →
ICR mice [5]; male, 10 μg/kg·day oral
  Amount of hemoglobin: →
  Homatocrit: →
  Number of erythrocyte: →
  Number of leucocyte: →
ICR mice [5]; male, 100 μg/kg·day oral
  Amount of hemoglobin: →
  Homatocrit: →
  Number of erythrocyte: →
  Number of leucocyte: →
ICR mice [5]; male, 1000 μg/kg·day oral
  Amount of hemoglobin: →
  Homatocrit: →
  Number of erythrocyte: →
  Number of leucocyte: →
[6]
  X-ray inspection: the cure of the fracture was accelerated
ICR mice [7]; gemale, 10 μg/kg·day oral
  Weight of organs: Adrenal gland: →
  Weight of organs: Brain: →
  Weight of organs: Heart: →
  Weight of organs: Hypo-physis: →
  Weight of organs: Kidney: →
  Weight of organs: Liver: →
  Weight of organs: Lung: →
  Weight of organs: Ovary: →
  Weight of organs: Spleen: →
  Weight of organs: Thymus: →
  Weight of organs: Uterus: →
ICR mice [7]; gemale, 100 μg/kg·day oral
  Weight of organs: Adrenal gland: →
  Weight of organs: Brain: →
  Weight of organs: Heart: →
  Weight of organs: Hypo-physis: →
  Weight of organs: Kidney: →
  Weight of organs: Liver: →
  Weight of organs: Lung: →
  Weight of organs: Ovary: →
  Weight of organs: Spleen: →
  Weight of organs: Thymus: →
  Weight of organs: Uterus: →
ICR mice [7]; gemale, 1000 μg/kg·day oral
  Weight of organs: Adrenal gland: →
  Weight of organs: Brain: →
  Weight of organs: Heart: →
  Weight of organs: Hypo-physis: →
  Weight of organs: Kidney: →
  Weight of organs: Liver: →
  Weight of organs: Lung: →
  Weight of organs: Ovary: →
  Weight of organs: Spleen: →
  Weight of organs: Thymus: →
  Weight of organs: Uterus: →
ICR mice [7]; male, 10 μg/kg·day oral
  Weight of organs: Adrenal gland: →
  Weight of organs: Brain: →
  Weight of organs: Heart: →
  Weight of organs: Hypo-physis: →
  Weight of organs: Kidney: →
  Weight of organs: Liver: →
  Weight of organs: Lung: →
  Weight of organs: Spleen: →
  Weight of organs: Testis: →
  Weight of organs: Thymus: →
ICR mice [7]; male, 100 μg/kg·day oral
  Weight of organs: Adrenal gland: →
  Weight of organs: Brain: →
  Weight of organs: Heart: →
  Weight of organs: Hypo-physis: →
  Weight of organs: Kidney: →
  Weight of organs: Liver: →
  Weight of organs: Lung: →
  Weight of organs: Spleen: →
  Weight of organs: Testis: →
  Weight of organs: Thymus: →
ICR mice [7]; male, 1000 μg/kg·day oral
  Weight of organs: Adrenal gland: →
  Weight of organs: Brain: →
  Weight of organs: Heart: →
  Weight of organs: Hypo-physis: →
  Weight of organs: Kidney: →
  Weight of organs: Liver: →
  Weight of organs: Lung: →
  Weight of organs: Spleen: →
  Weight of organs: Testis: →
  Weight of organs: Thymus: →
[8]
  growth curve of the measured weights: no significant difference

## C=C1CC[C@H](O)C/C1=C/C=C1\CCC[C@]2(C)[C@@H]([C@H](C)CC[C@H](O)C(C)(C)O)CC[C@@H]12 [24S,25-(OH)₂-D₃]
[4]; 3 weeks after
  Bending strength: 15 N/mm
[4]; 6 weeks after
  Bending strength: 81 ± 37 N/mm
